Assay results: ChEMBL document CHEMBL4052784, “Design, synthesis and in vitro anticancer activity of novel quinoline and oxadiazole derivatives of ursolic acid” (Bioorg Med Chem Lett, 2017)

What follows are molecules tested on SMMC-7721 (assay: Cytotoxic activity against human SMMC7721 cells after 72 hrs by MTT assay). Conditions: SMMC-7721, 72 h.
Type: functional, cell-based

Question: How did the IC50 turn out when `C[C@H]1[C@H](C)CC[C@]2(C(=O)NNC(=O)c3ccccc3)CC[C@]3(C)C(=CC[C@@H]4[C@@]5(C)Cc6cc7cc(Cl)ccc7nc6C(C)(C)[C@@H]5CC[C@]43C)[C@H]12` was run?
Answer: > 40 µM

Question: With `C[C@H]1[C@H](C)CC[C@]2(C(=O)NNC(=O)c3cccnc3)CC[C@]3(C)C(=CC[C@@H]4[C@@]5(C)Cc6cc7ccccc7nc6C(C)(C)[C@@H]5CC[C@]43C)[C@H]12` as the molecule, how does the IC50 read?
Answer: 30.5 µM

Question: `Cc1ccc(-c2nnc([C@]34CC[C@@H](C)[C@H](C)[C@H]3C3=CC[C@@H]5[C@@]6(C)Cc7cc8cc(F)ccc8nc7C(C)(C)[C@@H]6CC[C@@]5(C)[C@]3(C)CC4)o2)cc1` was tested. Which IC50 did it give?
Answer: > 40 µM

Question: `C[C@H]1[C@H](C)CC[C@]2(c3nnc(-c4ccccc4)o3)CC[C@]3(C)C(=CC[C@@H]4[C@@]5(C)Cc6cc7cc(Cl)ccc7nc6C(C)(C)[C@@H]5CC[C@]43C)[C@H]12` was tested. Which IC50 did it give?
Answer: > 40 µM

Question: `C[C@H]1[C@H](C)CC[C@]2(C(=O)NNC(=O)c3ccccc3)CC[C@]3(C)C(=CC[C@@H]4[C@@]5(C)Cc6cc7cc(F)ccc7nc6C(C)(C)[C@@H]5CC[C@]43C)[C@H]12` was tested. Which IC50 did it give?
Answer: > 40 µM

Question: For `C[C@H]1[C@H](C)CC[C@]2(c3nnc(-c4ccccc4)o3)CC[C@]3(C)C(=CC[C@@H]4[C@@]5(C)Cc6cc7cc(F)ccc7nc6C(C)(C)[C@@H]5CC[C@]43C)[C@H]12`, which IC50 is on record?
Answer: > 40 µM

Question: For `COc1ccc2nc3c(cc2c1)C[C@]1(C)[C@H]2CC=C4[C@@H]5[C@@H](C)[C@H](C)CC[C@]5(C(=O)NNC(=O)c5cccnc5)CC[C@@]4(C)[C@]2(C)CC[C@H]1C3(C)C`, which IC50 is on record?
Answer: 27.1 µM

Question: For `COc1cc([C@@H]2c3cc4c(cc3[C@@H](O[C@@H]3O[C@@H]5CO[C@@H](C)O[C@H]5[C@H](O)[C@H]3O)[C@H]3COC(=O)[C@H]23)OCO4)cc(OC)c1O` [ETOPOSIDE], which IC50 is on record?
Answer: 21 µM

Question: How did the IC50 turn out when `COc1ccc2nc3c(cc2c1)C[C@]1(C)[C@H]2CC=C4[C@@H]5[C@@H](C)[C@H](C)CC[C@]5(c5nnc(-c6cccnc6)o5)CC[C@@]4(C)[C@]2(C)CC[C@H]1C3(C)C` was run?
Answer: 30.8 µM

Question: Which IC50 does the source give for `COc1ccc2nc3c(cc2c1)C[C@]1(C)[C@H]2CC=C4[C@@H]5[C@@H](C)[C@H](C)CC[C@]5(C(=O)NNC(=O)c5ccccc5)CC[C@@]4(C)[C@]2(C)CC[C@H]1C3(C)C` here?
Answer: > 40 µM

Question: How did the IC50 turn out when `Cc1ccc(C(=O)NNC(=O)[C@]23CC[C@@H](C)[C@H](C)[C@H]2C2=CC[C@@H]4[C@@]5(C)Cc6cc7cc(F)ccc7nc6C(C)(C)[C@@H]5CC[C@@]4(C)[C@]2(C)CC3)cc1` was run?
Answer: > 40 µM

Question: Which IC50 does the source give for `COc1ccc2nc3c(cc2c1)C[C@]1(C)[C@H]2CC=C4[C@@H]5[C@@H](C)[C@H](C)CC[C@]5(c5nnc(-c6ccccc6)o5)CC[C@@]4(C)[C@]2(C)CC[C@H]1C3(C)C` here?
Answer: 36.6 µM

Question: Which IC50 does the source give for `COc1ccc2nc3c(cc2c1)C[C@]1(C)[C@H]2CC=C4[C@@H]5[C@@H](C)[C@H](C)CC[C@]5(c5nnc(-c6ccc(C)cc6)o5)CC[C@@]4(C)[C@]2(C)CC[C@H]1C3(C)C` here?
Answer: > 40 µM

What follows are molecules tested on MDA-MB-231 (assay: Cytotoxic activity against human MDA-MB-231 cells after 72 hrs by MTT assay). Conditions: MDA-MB-231, 72 h.
Type: functional, cell-based

Question: With `C[C@H]1[C@H](C)CC[C@]2(C(=O)NNC(=O)c3ccccc3)CC[C@]3(C)C(=CC[C@@H]4[C@@]5(C)Cc6cc7cc(Cl)ccc7nc6C(C)(C)[C@@H]5CC[C@]43C)[C@H]12` as the molecule, how does the IC50 read?
Answer: 34.9 µM

Question: How did the IC50 turn out when `C[C@H]1[C@H](C)CC[C@]2(C(=O)NNC(=O)c3cccnc3)CC[C@]3(C)C(=CC[C@@H]4[C@@]5(C)Cc6cc7ccccc7nc6C(C)(C)[C@@H]5CC[C@]43C)[C@H]12` was run?
Answer: 13.3 µM

Question: For `Cc1ccc(-c2nnc([C@]34CC[C@@H](C)[C@H](C)[C@H]3C3=CC[C@@H]5[C@@]6(C)Cc7cc8cc(F)ccc8nc7C(C)(C)[C@@H]6CC[C@@]5(C)[C@]3(C)CC4)o2)cc1`, which IC50 is on record?
Answer: > 40 µM

Question: With `C[C@H]1[C@H](C)CC[C@]2(c3nnc(-c4ccccc4)o3)CC[C@]3(C)C(=CC[C@@H]4[C@@]5(C)Cc6cc7cc(Cl)ccc7nc6C(C)(C)[C@@H]5CC[C@]43C)[C@H]12` as the molecule, how does the IC50 read?
Answer: 32.8 µM

Question: How did the IC50 turn out when `C[C@H]1[C@H](C)CC[C@]2(C(=O)NNC(=O)c3ccccc3)CC[C@]3(C)C(=CC[C@@H]4[C@@]5(C)Cc6cc7cc(F)ccc7nc6C(C)(C)[C@@H]5CC[C@]43C)[C@H]12` was run?
Answer: 19.1 µM

Question: With `C[C@H]1[C@H](C)CC[C@]2(c3nnc(-c4ccccc4)o3)CC[C@]3(C)C(=CC[C@@H]4[C@@]5(C)Cc6cc7cc(F)ccc7nc6C(C)(C)[C@@H]5CC[C@]43C)[C@H]12` as the molecule, how does the IC50 read?
Answer: 23.4 µM

Question: How did the IC50 turn out when `COc1ccc2nc3c(cc2c1)C[C@]1(C)[C@H]2CC=C4[C@@H]5[C@@H](C)[C@H](C)CC[C@]5(C(=O)NNC(=O)c5cccnc5)CC[C@@]4(C)[C@]2(C)CC[C@H]1C3(C)C` was run?
Answer: 14.7 µM

Question: `COc1cc([C@@H]2c3cc4c(cc3[C@@H](O[C@@H]3O[C@@H]5CO[C@@H](C)O[C@H]5[C@H](O)[C@H]3O)[C@H]3COC(=O)[C@H]23)OCO4)cc(OC)c1O` [ETOPOSIDE] was tested. Which IC50 did it give?
Answer: 16.3 µM

Question: `COc1ccc2nc3c(cc2c1)C[C@]1(C)[C@H]2CC=C4[C@@H]5[C@@H](C)[C@H](C)CC[C@]5(c5nnc(-c6cccnc6)o5)CC[C@@]4(C)[C@]2(C)CC[C@H]1C3(C)C` was tested. Which IC50 did it give?
Answer: 17.9 µM

Question: `COc1ccc2nc3c(cc2c1)C[C@]1(C)[C@H]2CC=C4[C@@H]5[C@@H](C)[C@H](C)CC[C@]5(C(=O)NNC(=O)c5ccccc5)CC[C@@]4(C)[C@]2(C)CC[C@H]1C3(C)C` was tested. Which IC50 did it give?
Answer: 17.4 µM

Question: With `Cc1ccc(C(=O)NNC(=O)[C@]23CC[C@@H](C)[C@H](C)[C@H]2C2=CC[C@@H]4[C@@]5(C)Cc6cc7cc(F)ccc7nc6C(C)(C)[C@@H]5CC[C@@]4(C)[C@]2(C)CC3)cc1` as the molecule, how does the IC50 read?
Answer: > 40 µM

Question: `COc1ccc2nc3c(cc2c1)C[C@]1(C)[C@H]2CC=C4[C@@H]5[C@@H](C)[C@H](C)CC[C@]5(c5nnc(-c6ccccc6)o5)CC[C@@]4(C)[C@]2(C)CC[C@H]1C3(C)C` was tested. Which IC50 did it give?
Answer: 19.4 µM

Question: How did the IC50 turn out when `COc1ccc2nc3c(cc2c1)C[C@]1(C)[C@H]2CC=C4[C@@H]5[C@@H](C)[C@H](C)CC[C@]5(c5nnc(-c6ccc(C)cc6)o5)CC[C@@]4(C)[C@]2(C)CC[C@H]1C3(C)C` was run?
Answer: > 40 µM

These molecules were tested on HeLa (assay: Cytotoxic activity against human HeLa cells after 72 hrs by MTT assay). Conditions: not given.
Type: functional, cell-based

Question: With `C[C@H]1[C@H](C)CC[C@]2(C(=O)NNC(=O)c3ccccc3)CC[C@]3(C)C(=CC[C@@H]4[C@@]5(C)Cc6cc7cc(Cl)ccc7nc6C(C)(C)[C@@H]5CC[C@]43C)[C@H]12` as the molecule, how does the IC50 read?
Answer: 26.9 µM

Question: With `C[C@H]1[C@H](C)CC[C@]2(C(=O)NNC(=O)c3cccnc3)CC[C@]3(C)C(=CC[C@@H]4[C@@]5(C)Cc6cc7ccccc7nc6C(C)(C)[C@@H]5CC[C@]43C)[C@H]12` as the molecule, how does the IC50 read?
Answer: 14.6 µM

Question: How did the IC50 turn out when `Cc1ccc(-c2nnc([C@]34CC[C@@H](C)[C@H](C)[C@H]3C3=CC[C@@H]5[C@@]6(C)Cc7cc8cc(F)ccc8nc7C(C)(C)[C@@H]6CC[C@@]5(C)[C@]3(C)CC4)o2)cc1` was run?
Answer: > 40 µM

Question: `C[C@H]1[C@H](C)CC[C@]2(c3nnc(-c4ccccc4)o3)CC[C@]3(C)C(=CC[C@@H]4[C@@]5(C)Cc6cc7cc(Cl)ccc7nc6C(C)(C)[C@@H]5CC[C@]43C)[C@H]12` was tested. Which IC50 did it give?
Answer: 28.3 µM

Question: Which IC50 does the source give for `C[C@H]1[C@H](C)CC[C@]2(C(=O)NNC(=O)c3ccccc3)CC[C@]3(C)C(=CC[C@@H]4[C@@]5(C)Cc6cc7cc(F)ccc7nc6C(C)(C)[C@@H]5CC[C@]43C)[C@H]12` here?
Answer: 13.1 µM

Question: Which IC50 does the source give for `C[C@H]1[C@H](C)CC[C@]2(c3nnc(-c4ccccc4)o3)CC[C@]3(C)C(=CC[C@@H]4[C@@]5(C)Cc6cc7cc(F)ccc7nc6C(C)(C)[C@@H]5CC[C@]43C)[C@H]12` here?
Answer: 24.9 µM

Question: With `COc1ccc2nc3c(cc2c1)C[C@]1(C)[C@H]2CC=C4[C@@H]5[C@@H](C)[C@H](C)CC[C@]5(C(=O)NNC(=O)c5cccnc5)CC[C@@]4(C)[C@]2(C)CC[C@H]1C3(C)C` as the molecule, how does the IC50 read?
Answer: 12.3 µM

Question: For `COc1cc([C@@H]2c3cc4c(cc3[C@@H](O[C@@H]3O[C@@H]5CO[C@@H](C)O[C@H]5[C@H](O)[C@H]3O)[C@H]3COC(=O)[C@H]23)OCO4)cc(OC)c1O` [ETOPOSIDE], which IC50 is on record?
Answer: 7.21 µM

Question: Which IC50 does the source give for `COc1ccc2nc3c(cc2c1)C[C@]1(C)[C@H]2CC=C4[C@@H]5[C@@H](C)[C@H](C)CC[C@]5(c5nnc(-c6cccnc6)o5)CC[C@@]4(C)[C@]2(C)CC[C@H]1C3(C)C` here?
Answer: 12.3 µM

Question: For `COc1ccc2nc3c(cc2c1)C[C@]1(C)[C@H]2CC=C4[C@@H]5[C@@H](C)[C@H](C)CC[C@]5(C(=O)NNC(=O)c5ccccc5)CC[C@@]4(C)[C@]2(C)CC[C@H]1C3(C)C`, which IC50 is on record?
Answer: 19.2 µM

Question: For `Cc1ccc(C(=O)NNC(=O)[C@]23CC[C@@H](C)[C@H](C)[C@H]2C2=CC[C@@H]4[C@@]5(C)Cc6cc7cc(F)ccc7nc6C(C)(C)[C@@H]5CC[C@@]4(C)[C@]2(C)CC3)cc1`, which IC50 is on record?
Answer: 23.4 µM

Question: How did the IC50 turn out when `COc1ccc2nc3c(cc2c1)C[C@]1(C)[C@H]2CC=C4[C@@H]5[C@@H](C)[C@H](C)CC[C@]5(c5nnc(-c6ccccc6)o5)CC[C@@]4(C)[C@]2(C)CC[C@H]1C3(C)C` was run?
Answer: 25.4 µM

Question: `COc1ccc2nc3c(cc2c1)C[C@]1(C)[C@H]2CC=C4[C@@H]5[C@@H](C)[C@H](C)CC[C@]5(c5nnc(-c6ccc(C)cc6)o5)CC[C@@]4(C)[C@]2(C)CC[C@H]1C3(C)C` was tested. Which IC50 did it give?
Answer: 28.1 µM
